Measurements published in PMC11530593, “Structural mechanism of human HCN1 hyperpolarization-activated channel inhibition by ivabradine” (The Journal of Biological Chemistry, 2024).
Where a chain is given by its changes, count along the chain named.

Assays:
WT hHCN1 = molecular target: T1, WT hHCN1 (Homo sapiens, UniProt O60741); assay: Whole-cell patch-clamp, Ih inhibition in transfected HeLa cells; type: cell-based
T1 construct: Full-length WT or mutant human HCN1 were cloned into the pcDNA3.1 vector; expressed in transfected cells; host or cells: HeLa cells, pcDNA3.1 vector, transient lipofection
T1 sequence (O60741 1-890): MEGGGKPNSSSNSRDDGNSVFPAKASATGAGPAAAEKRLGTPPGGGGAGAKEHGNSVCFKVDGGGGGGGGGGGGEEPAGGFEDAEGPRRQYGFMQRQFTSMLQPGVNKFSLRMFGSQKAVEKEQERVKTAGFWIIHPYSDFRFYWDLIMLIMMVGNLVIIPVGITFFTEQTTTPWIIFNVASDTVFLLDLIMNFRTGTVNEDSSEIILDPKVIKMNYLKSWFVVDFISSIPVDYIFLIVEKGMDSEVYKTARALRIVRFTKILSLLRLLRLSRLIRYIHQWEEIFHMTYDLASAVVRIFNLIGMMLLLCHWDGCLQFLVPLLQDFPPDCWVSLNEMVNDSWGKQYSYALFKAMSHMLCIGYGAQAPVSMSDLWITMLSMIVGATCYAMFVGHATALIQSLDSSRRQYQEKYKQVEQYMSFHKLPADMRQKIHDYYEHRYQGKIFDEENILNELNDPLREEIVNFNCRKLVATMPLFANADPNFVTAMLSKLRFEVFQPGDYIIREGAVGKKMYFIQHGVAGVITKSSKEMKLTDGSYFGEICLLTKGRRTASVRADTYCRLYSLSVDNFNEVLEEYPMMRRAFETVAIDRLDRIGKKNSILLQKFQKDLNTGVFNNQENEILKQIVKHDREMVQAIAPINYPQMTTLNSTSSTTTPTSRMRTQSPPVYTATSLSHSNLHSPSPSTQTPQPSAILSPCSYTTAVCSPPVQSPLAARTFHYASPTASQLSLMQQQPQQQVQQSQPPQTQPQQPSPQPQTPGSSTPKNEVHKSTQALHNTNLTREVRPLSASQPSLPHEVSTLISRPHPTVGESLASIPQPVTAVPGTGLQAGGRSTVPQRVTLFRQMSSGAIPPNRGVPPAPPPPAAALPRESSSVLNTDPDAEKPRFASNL
Method: The electrophysiological characteristics of WT hHCN1 were recorded using whole-cell patch-clamp. […] Activation of the HCN1 channel occurred in response to membrane hyperpolarization.
(§1) Full-length WT or mutant human HCN1 were cloned into the pcDNA3.1 vector for electrophysiological experiments. HeLa cells (from Thermo Fisher Scientific) cultured in Dulbecco's modified Eagle's medium (from Solarbio Life Science) + 10% fetal bovine serum (from ExCell Bio) at 37 °C were transiently transfected using lipofection, and whole-cell patch-clamp recordings were obtained using the Axon 200B amplifier (Molecular Devices) and clampex software (https://www.moleculardevices.com/products/axon-patch-clamp-system/acquisition-and-analysis-software/pclamp-software-suite), 36 to 48 h posttransfection. The extracellular solution contained 110 mM NaCl, 0.5 mM MgCl2, 1.8 mM CaCl2, 5 mM Hepes, 30 mM KCl, and pH was adjusted to 7.4 with NaOH, while the pipette solution contained 130 mM KCl, 10 mM NaCl, 0.5 mM MgCl2, 1 mM EGTA, 5 mM Hepes, and pH was adjusted to 7.4 with KOH. The recordings were performed at room temperature, voltage-clamp mode, and filtered at 1 kHz. The sampling frequency was 10 kHz, and the series resistance was limited to 5 MΩ. To elicit channel currents, step pulses of 3 s duration ranging from −180 mV to −30 mV were applied, followed by a step to −180 mV lasting 1.25 s. The tail currents evoked by the second step were used to determine the voltage-dependent activation curves and calculate the midpoint of activation potential (V1/2). The half maximal inhibitory concentration (IC50) of drugs was determined by recording currents at a pulse of −140 mV and analyzing current amplitudes at varying drug concentrations. The IC50 value was calculated using the Hill equation.

HCN1 mutant W281A = molecular target: T2, HCN1 mutant W281A (Homo sapiens, UniProt O60741, W281A); assay: Whole-cell patch-clamp, Ih inhibition, HCN1 mutant; type: cell-based; conditions: electrophysiological recordings, read-out: IC50 (Fig. 2F)
T2 construct: Full-length WT or mutant human HCN1 were cloned into the pcDNA3.1 vector; expressed in transfected cells; host or cells: HeLa cells, pcDNA3.1 vector, transient lipofection
T2 sequence (O60741 1-890 W281A): T1 sequence (O60741 1-890) with W281A
Method: To elucidate the contribution of these residues to the inhibitory effect of ivabradine, we introduced mutations in ivabradine-interacting residues, converting them into alanines (Fig. 2F).
as §1

**Q.** Which results are given for `COc1cc2c(cc1OC)CC(=O)N(CCCN(C)C[C@H]1Cc3cc(OC)c(OC)cc31)CC2` [ivabradine]?
**A.** effect on Ih current (WT hHCN1; 20 μM): significantly reduced; IC50 (WT hHCN1; membrane potential -140 mV, read-out: half-maximal inhibitory concentration (IC50) of Ih inhibition): 2.94 ± 0.61 µM; IC50 (HCN1 mutant W281A): 17.4 µM
